Laboratory results taken from patent US8293774B2, “Optically active (R)-aryloxypropionic acid amides and herbicidal composition comprising same” (Kyung Nong Corporation, priority 2007, dated 2012).

Tests used:
Assay in all cases: Weed control test, foliage treatment (Test Example 1, Table 7)
[1] = tested on: GLXMA (Glycine max(L.) MERR, soy bean); details: in vivo
Method: (§1) Seeds of rice, wheat, soy bean, barley, corn, common sorgum, barnyard grass, large crabgrass, creek grass, green foxtail and fall panicum were placed in sandy loam in 600 cm^2 pots and covered with soil. After keeping the pots in a greenhouse at 20 to 30° C. allowing growth of the plants to the 3-leaf stage of the barnyard grass, 2,000 l/ha of an emulsion obtained by diluting with water a mixture of 1 part by weight of a test compound, 5 parts by weight of acetone and 1 part by weight of an emulsifying agent (Tween 80, Junsei) was applied to the surface of the foliage of the plants. The plant damage at 10 days and 20 days after the foliage treatment was visually evaluated from the level of 1 to 100% by comparison with the untreated control: […]

[2] = tested on: HORVU (Hordeum vulgare L., barley); details: in vivo
Method: as §1

[3] = tested on: ORYSA (Oryza sativa cv. Dongjin, rice); details: in vivo
Method: as §1

[4] = tested on: TRZAW (Tritium aestivum L., wheat); details: in vivo
Method: as §1

[5] = tested on: ARTHIS (Arthraxon hispidus (Thunb.) Makino, creek grass); format: in vivo; details: Arthraxon hispidus, foliar, read-out: Plant damage (herbicidal activity), visually evaluated, ARTHIS; for pest or weed control at 25 g/ha: 0.025 kg/ha; for pest or weed control at 100 g/ha: 0.1 kg/ha; for pest or weed control at 200 g/ha: 0.2 kg/ha
Method: as §1

[6] = tested on: DIGSA (Digitaria Sanguinalis (L.) SCOP, large crabgrass); format: in vivo; details: Digitaria sanguinalis, foliar, read-out: Plant damage (herbicidal activity), visually evaluated, DIGSA; for pest or weed control at 25 g/ha: 0.025 kg/ha; for pest or weed control at 100 g/ha: 0.1 kg/ha; for pest or weed control at 200 g/ha: 0.2 kg/ha
Method: as §1

[7] = tested on: ECHOG (Echinoch crus-galli Beauv. var. caudata Kitagawa, barnyard grass); format: in vivo; details: Echinochloa crus-galli, foliar, 3-leaf stage, read-out: Plant damage (herbicidal activity), visually evaluated, ECHOG; for pest or weed control at 25 g/ha: 0.025 kg/ha; for pest or weed control at 100 g/ha: 0.1 kg/ha; for pest or weed control at 200 g/ha: 0.2 kg/ha
Method: as §1

[8] = tested on: PANDI (Panium dichotomiflorum Michx, fall panicum); format: in vivo; details: Panicum dichotomiflorum, foliar, read-out: Plant damage (herbicidal activity), visually evaluated, PANDI; for pest or weed control at 25 g/ha: 0.025 kg/ha; for pest or weed control at 100 g/ha: 0.1 kg/ha; for pest or weed control at 200 g/ha: 0.2 kg/ha
Method: as §1

[9] = tested on: SETVIR (Setaria viridis (L.) Beauv, green foxtail); format: in vivo; details: Setaria viridis, foliar, read-out: Plant damage (herbicidal activity), visually evaluated, SETVIR; for pest or weed control at 25 g/ha: 0.025 kg/ha; for pest or weed control at 100 g/ha: 0.1 kg/ha; for pest or weed control at 200 g/ha: 0.2 kg/ha
Method: as §1

[10] = tested on: SORBI (Andropogon sorghum, common sorgum); format: in vivo; details: Sorghum bicolor, foliar, read-out: Plant damage (herbicidal activity), visually evaluated, SORBI; for pest or weed control at 25 g/ha: 0.025 kg/ha; for pest or weed control at 100 g/ha: 0.1 kg/ha; for pest or weed control at 200 g/ha: 0.2 kg/ha
Method: as §1

[11] = tested on: ZEAMX (Zea mays L., corn); format: in vivo; details: Zea mays, foliar, read-out: Plant damage (herbicidal activity), visually evaluated, ZEAMX; for plant injury at 25 g/ha: 0.025 kg/ha; for plant injury at 100 g/ha: 0.1 kg/ha; for plant injury at 200 g/ha: 0.2 kg/ha
Method: as §1

Row | Structure (SMILES) | Plant damage (herbicidal activity), visually evaluated, GLXMA [1] | Plant damage (herbicidal activity), visually evaluated, HORVU [2] | Plant damage (herbicidal activity), visually evaluated, ORYSA [3] | Plant damage (herbicidal activity), visually evaluated, TRZAW [4] | pest or weed control at 25 g/ha [5] | pest or weed control at 100 g/ha [5] | pest or weed control at 200 g/ha [5] | pest or weed control at 25 g/ha [6] | pest or weed control at 100 g/ha [6] | pest or weed control at 200 g/ha [6] | pest or weed control at 25 g/ha [7] | pest or weed control at 100 g/ha [7] | pest or weed control at 200 g/ha [7] | pest or weed control at 25 g/ha [8] | pest or weed control at 100 g/ha [8] | pest or weed control at 200 g/ha [8] | pest or weed control at 25 g/ha [9] | pest or weed control at 100 g/ha [9] | pest or weed control at 200 g/ha [9] | pest or weed control at 25 g/ha [10] | other results
1 | Cc1ccc2nc(N(C)C(=O)[C@@H](C)Oc3ccc(Oc4ccc(C#N)cc4F)cc3)sc2c1 [Example 26, (R)-2-[4-(4-cyano-2-fluorophenoxy)phenoxy]propionic acid-N-(6-methyl-2-benzothiazolyl)-N-methyl amide] | 0% | 0% | 0% | 0% | 0% | 0% | 0% | 0% | 0% | 0% | 0% | 0% | 0% | 0% | 0% | 0% | 0% | 0% | 0% | 10% | pest or weed control at 100 g/ha [10]: 20%; pest or weed control at 200 g/ha [10]: 35%; plant injury at 25 g/ha [11]: 10%; plant injury at 100 g/ha [11]: 10%; plant injury at 200 g/ha [11]: 30%
2 | Cc1cc(NC(=O)[C@@H](C)Oc2ccc(Oc3ccc(C#N)cc3F)cc2)n(C)n1 [Example 29, (R)-2-[4-(4-cyano-2-fluorophenoxy)phenoxy]propionic acid-N-(1,3-dimethyl-5-pyrazolyl)amide] | 0% | 0% | 0% | 0% | 0% | 0% | 10% | 0% | 20% | 90% | 20% | 70% | 90% | 0% | 0% | 10% | 0% | 0% | 20% | 0% | pest or weed control at 100 g/ha [10]: 20%; pest or weed control at 200 g/ha [10]: 50%; plant injury at 25 g/ha [11]: 0%; plant injury at 100 g/ha [11]: 5%; plant injury at 200 g/ha [11]: 30%
3 | C[C@@H](Oc1ccc(Oc2ccc(C#N)cc2F)cc1)C(=O)Nc1nccs1 [Example 31, (R)-2-[4-(4-cyano-2-fluorophenoxy)phenoxy]propionic acid-N-(2-thiazolyl)amide] | 0% | 0% | 0% | 0% | 0% | 70% | 70% | 0% | 20% | 70% | 0% | 50% | 90% | 0% | 20% | 20% | 0% | 70% | 70% | 0% | pest or weed control at 100 g/ha [10]: 20%; pest or weed control at 200 g/ha [10]: 50%; plant injury at 25 g/ha [11]: 20%; plant injury at 100 g/ha [11]: 90%; plant injury at 200 g/ha [11]: 90%
4 | C[C@@H](Oc1ccc(Oc2ccc(C#N)cc2F)cc1)C(=O)Nc1cnccn1 [Example 35, (R)-2-[4-(4-cyano-2-fluorophenoxy)phenoxy]propionic acid-N-(2-pyrazinyl)amide] | 0% | 0% | 0% | 0% | 0% | 10% | 30% | 10% | 40% | 60% | 0% | 10% | 30% | 0% | 0% | 30% | 0% | 30% | 50% | 20% | pest or weed control at 100 g/ha [10]: 65%; pest or weed control at 200 g/ha [10]: 80%; plant injury at 25 g/ha [11]: 0%; plant injury at 100 g/ha [11]: 20%; plant injury at 200 g/ha [11]: 30%
5 | C[C@@H](Oc1ccc(OC(F)=Cc2ccccc2)cc1)C(=O)N(C)c1ccccc1F [Example 37, (R)-2-[4-(1-fluoro-2-phenylvinyloxy)phenoxy]propionic acid-N-(2-fluorophenyl)-N-methyl amide] | 0% | 0% | 0% | 0% | 0% | 0% | 10% | 0% | 20% | 90% | 20% | 70% | 90% | 0% | 0% | 10% | 0% | 0% | 20% | 0% | pest or weed control at 100 g/ha [10]: 20%; pest or weed control at 200 g/ha [10]: 20%; plant injury at 25 g/ha [11]: 0%; plant injury at 100 g/ha [11]: 0%; plant injury at 200 g/ha [11]: 30%
6 | C[C@@H](Oc1ccc(C(F)=C(c2ccc(F)cc2)C(F)(F)F)cc1)C(=O)Nc1ccccc1F [Example 40, (R)-2-[4-(1,3,3,3-tetrafluoro-2-(4-fluorophenyl)prop-1-enyl)phenoxy]propionic acid-N-(2-fluorophenyl)amide] | 0% | 0% | 0% | 0% | 0% | 0% | 10% | 70% | 90% | 90% | 20% | 70% | 90% | 0% | 0% | 10% | 0% | 0% | 20% | 0% | pest or weed control at 100 g/ha [10]: 20%; pest or weed control at 200 g/ha [10]: 50%; plant injury at 25 g/ha [11]: 90%; plant injury at 100 g/ha [11]: 100%; plant injury at 200 g/ha [11]: 100%
